One data set concerns the target T1, FLT3 (Homo sapiens, UniProt P36888).
T1 construct: purchased Invitrogen, Inc. (SelectScreen platform)
T1 sequence (P36888 27-993): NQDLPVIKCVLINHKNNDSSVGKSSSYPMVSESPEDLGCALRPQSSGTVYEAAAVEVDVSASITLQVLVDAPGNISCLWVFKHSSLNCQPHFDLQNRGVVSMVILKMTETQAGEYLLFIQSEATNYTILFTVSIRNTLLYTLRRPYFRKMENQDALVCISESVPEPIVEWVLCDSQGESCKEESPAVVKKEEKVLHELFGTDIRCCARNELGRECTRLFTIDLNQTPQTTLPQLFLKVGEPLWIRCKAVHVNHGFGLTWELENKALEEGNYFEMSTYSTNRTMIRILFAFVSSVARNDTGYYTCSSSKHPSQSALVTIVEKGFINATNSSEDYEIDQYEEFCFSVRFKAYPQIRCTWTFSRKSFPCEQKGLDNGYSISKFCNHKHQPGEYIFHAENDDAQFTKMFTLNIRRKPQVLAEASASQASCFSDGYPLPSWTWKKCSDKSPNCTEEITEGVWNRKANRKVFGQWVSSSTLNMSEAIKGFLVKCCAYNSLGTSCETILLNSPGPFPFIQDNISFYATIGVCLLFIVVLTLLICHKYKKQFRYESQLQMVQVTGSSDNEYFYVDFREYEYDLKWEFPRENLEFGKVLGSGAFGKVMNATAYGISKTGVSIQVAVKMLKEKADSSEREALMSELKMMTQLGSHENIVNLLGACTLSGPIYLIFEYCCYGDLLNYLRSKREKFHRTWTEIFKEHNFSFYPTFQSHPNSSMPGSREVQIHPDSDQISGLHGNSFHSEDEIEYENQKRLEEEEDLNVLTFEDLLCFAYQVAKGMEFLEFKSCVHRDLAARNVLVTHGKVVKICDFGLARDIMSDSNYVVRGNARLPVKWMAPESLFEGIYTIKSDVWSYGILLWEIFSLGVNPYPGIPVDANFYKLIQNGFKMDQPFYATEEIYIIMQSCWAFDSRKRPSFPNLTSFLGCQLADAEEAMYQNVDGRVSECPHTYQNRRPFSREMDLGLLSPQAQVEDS
The experiment in a line: SelectScreen kinase assay against FLT3. The format is biochemical. The conditions noted are these: ATP at 100 micromolar; for inhibition at 1 µM: 1000 nMolar, read-out: E1000 (percent inhibition at 1000 nMolar). How it is done:
The terms “IC50” and “EC50” are used interchangeably. As used herein, “EC50” refers to nMolar concentration at median percent inhibition determined by dose respose (DR) assay. As used herein, the term “E1000” refers to percent inhibition at 1000 nMolar determined by assay. EC50 was calculated based on dose response curve was fitted to 4 parameter Hill equation.
Testing of the compounds described in this invention was carried out using the SelectScreen™ platform from Invitrogen, Inc. (Carlsbad, Calif., USA) and the details of its performance are readily viewed via the web by linking to: http://www.invitrogen.com/downloads/SelectScrn_Brochure.pdf.
Briefly the approach is based on treating each specific kinase with a unique substrate and optical reporter system in the presence of ATP at 100 micromolar. In controls, the substrate is phosphorylated and a baseline optimal response is recorded.
The compounds were then re-tested by adding graded amounts of putative inhibitor which were added in 5 separate increments to generate a dose response curve. The latter is obtained by fitting to a 4 parameter Hill equation, a sigmoid saturation equation.
For the compounds of this invention, the experimental condition were as follows. The 2×FLT3/Tyr 02 peptide mixture was prepared in 50 mM HEPES pH 7.5, 0.01 BRIJ-35, 10 mM MgCl2, 1 mM EGTA. The final 10 uL kinase reaction consists of 0.6-76.0 ng FLT3 and 2 uM Tyr 02 peptide in 50 mM HEPES pH 7.5, 0.01% BRIJ-35, […], 1 mM EGTA. After 1 hour kinase reaction incubation, 5 uL of a 1:64 dilution of development reagent A was added.
EC50 and E1000 values for selected compounds of formula (IB) were measured according to the protocol described above in Example 9.

Data set [1] has as its system arthritis induced by monoclonal antibodies raised against type II collagen, plus LPS. The conditions noted are these: Lange et al., 2005; cited from earlier work.
The test system of a further data set is IL-4. The experiment in a line: Mediator release, IL-4 (Con A-stimulated PBML, sandwich ELISA). The format is cell-based. The conditions noted are these: Homo sapiens, read-out: % Growth Inhibition. On the procedure:
(§1) In this experiment, test compound and/or vehicle were preincubated with human peripheral blood mononuclear leukocyte (PBML, 1×10^6/ml) in RPMI buffer pH 7.4 for 2 hours. Concanavalin A (Con A, 20 μg/ml) was then added to stimulate the cells overnight in 5% CO2 at 37° C. IL-4 and IL-10 cytokine levels in the conditioned medium were then quantified using a sandwich ELISA kit. Compounds were screened at 10, 1, 0.1, 0.01 and 0.001 μM.
On the technique in general: In an ELISA, binding on a coated surface is turned into a signal by an enzyme label.

A further data set has as its system IL-10. The experiment in a line: Mediator release, IL-10 (Con A-stimulated PBML, sandwich ELISA). The format is cell-based. The conditions noted are these: Homo sapiens, read-out: % inhibition of IL-10 release, read-out: % Growth Inhibition. On the procedure: as §1
Data set [2] concerns B-lymphocyte cells isolated from the spleen. The experiment in a line: Cell proliferation, B-Cell + LPS ([3H]thymidine incorporation). It counts as cell-based, balb/c mice. The conditions noted are these: Mus musculus, read-out: % Growth Inhibition. On the procedure: B-lymphocyte cells isolated from the spleen of balb/c mice weighing 17±1 g were used. Test compound and/or vehicle were incubated with the cells (1.5×10^6/ml) in the presence of 10 μg/ml lipopolysaccharide (LPS) in AIM-V medium pH 7.4 at 37° C. for 24 hours. [^3H]Thymidine (120 nM) was then added for an additional overnight incubation period. Thymidine incorporation was assessed by liquid scintillation counting.
(§2) Test compound-induced suppression of cell proliferation by 50 percent or more (≧50%) relative to vehicle control response indicates significant inhibitory activity.

Data set [3] relates to T-lymphocyte cells isolated from thymus. The experiment in a line: Cell proliferation, T-Cell + Con A ([3H]thymidine incorporation). It counts as cell-based, balb/c mice. The conditions noted are these: Mus musculus. On the procedure: T-lymphocyte cells isolated from thymus of balb/c mice weighing 17±1 g were used. Test compound and/or vehicle is incubated with the cells (4×10^6/ml) in the presence of 3 μg/mL Concanavalin A (Con A) in AIM-V medium pH 7.4 at 37° C. for 24 hours. [^3H]Thymidine (120 nM) was then added for an additional overnight incubation period. Thymidine incorporation was assessed by liquid scintillation counting. Compounds were screened at 10, 1, 0.1, 0.01 and 0.001 μM.
as §2
(Uptake of a labelled nucleoside into DNA is a usual measure of proliferation.)

Data set [4] relates to Experimental Autoimmune Encephalomyelitis (EAE). The experiment in a line: Acute stage Experimental Autoimmune Encephalomyelitis (EAE) model, daily dosing. On the procedure: Accordingly, three randomized cohorts of guinea pigs with EAE induced by the method of Example 2, were treated, respectively, with 6 mg/kg of Symadex™ (full salt hydrate) and 0.35 mg/kg of mitoxantrone. Animals were treated daily, by intraperitoneal injection, for 15 days, starting on day 7 post immunization. Controls were treated with vehicle. We reasoned that 15 consecutive, 6 mg/kg doses of Symadex™ would represent a level of drug exposure that would be commensurate with the “20 mg/kg every 72 hours” regimen in Example 4 and consistent with a mid level exposure between the 20 mg/kg and the 40 mg/kg schedule given weekly, in Example 2. The mitoxantrone dose was selected to reflect a typical high dose given to rats or mice by daily dosing in the prior art, but allometrically scaled to the guinea pig.

Like-named read-outs stand apart in the source and are kept apart here.

Consider `CN(C)CCCCCNc1ccc2ncn3c4ccc5[nH]ncc5c4c(=O)c1c23` [(IIIA)], for which, on FLT3 (indazoles), the inhibition (as a rule, the relative decrease from the control value, in per cent) at 1 µM stood at 96% and the EC50 (commonly the concentration giving half of the maximal effect) was 16 nM.
At FLT3 (indazoles), `CN(C)CCCNc1ccc2ncn3c4ccc5[nH]ncc5c4c(=O)c1c23` [(IVA)] gave an EC50 of 9 nM. This lies in the single-digit nanomolar range.
On to `CN(C)CCNc1ccc2ncn3c4ccc(OC(=O)OC(C)(C)C)cc4c(=O)c1c23` [(VB)], for which, at FLT3 (esters of formula (IB)), the inhibition at 1 µM came out at 92% and a half-maximal response (EC50) required 96 nM.
Turning to `O=c1c2c(NCCN3CCOCC3)ccc3ncn(c4ccc5[nH]ncc5c14)c32` [Compound (VA)], on FLT3 (indazoles), the inhibition at 1 µM is 87% and the half-maximal effective concentration (EC50) was found to be 32 nM.
As to `CCN(CC)CCNc1ccc2ncn3c4ccc(OC(C)=O)cc4c(=O)c1c23` [Compound (VIB), Acetic acid 5-(2-diethylamino-ethylamino)-6-oxo-6H-2,10b-diaza-aceanthrylen-8-yl ester], on FLT3 (esters of formula (IB)), the inhibition at 1 µM was found to be 64% and the EC50 was 471 nM.
Turning to `CN(Cc1cnc2nc(N)nc(N)c2n1)c1ccc(C(=O)N[C@@H](CCC(=O)O)C(=O)O)cc1` [Methotrexate], the “benefit in antibody induced arthritis models” value in data set [1] is on record as “diminishing benefit”.
Turning to `O=C1c2c(O)ccc(O)c2C(=O)c2c(NCCNCCO)ccc(NCCNCCO)c21` [Mitoxantrone, reference compound], the inhibition at 0.001 µM with IL-4 (1 nM) is 11%; with IL-10 (1 nM), 2%; in data set [2] (1 nM) it was 18%; in data set [3] (1 nM, read-out: % Growth Inhibition), -1%. Besides, the inhibition at 0.01 µM came to 13% in the data set on IL-4 (10 nM); 1% in the data set on IL-10 (10 nM); 54% in data set [2] (10 nM); 19% in data set [3] (10 nM, read-out: % Growth Inhibition). The inhibition at 0.1 µM with IL-4 (0.1 μM) was determined as 18%; in the data set with IL-10 (0.1 μM) it was 5%; in data set [2] (0.1 μM), 93%; in data set [3] (0.1 μM, read-out: % Growth Inhibition), 80%. Further, the inhibition at 1 µM is -4% in the data set with IL-4 (1 μM); 60% in the data set on IL-10 (1 μM); 102% in data set [2] (1 μM); 103% in data set [3] (1 μM, read-out: % Growth Inhibition). Also, the inhibition at 10 µM turned out to be 108% in the data set with IL-4 (10 μM); 102% in the data set on IL-10 (10 μM); 102% in data set [2] (10 μM); 103% in data set [3] (10 μM, read-out: % Growth Inhibition). In addition, the IC50 (as a rule, the concentration needed to halve the response being measured) in data set [3] (T-Cell + Con A proliferation, read-out: IC50) is 32 nM. Also, the “clinical score course (neurological impairment)” value in data set [4] (daily i.p. for 15 days from day 7 post immunization, Symadex 6 mg/kg, mitoxantrone 0.35 mg/kg) is reported as “initial rise in neurological impairment is arrested”. In addition, the “statistical significance of therapeutic effect on clinical score vs control (Mann-Whitney rank-sum)” value in data set [4] (daily i.p. for 15 days, Symadex 6 mg/kg (p below 0.05), mitoxantrone 0.35 mg/kg) is recorded as “did not reach statistical significance”. The weight gain profile entry in data set [4] (daily i.p. for 15 days, Symadex 6 mg/kg, mitoxantrone 0.35 mg/kg, Symadex vs mitoxantrone p 0.034) was “impairs weight gain”. Moreover, the “pathology score: meningeal inflammation (M) vs control” value in data set [4] (necropsy after 15 daily doses) is “statistically significant reduction”. Moreover, the “pathology scores: perivascular cuffing (P), myelitis (E) and demyelination (D) vs control” value in data set [4] (necropsy after 15 daily doses, p value<0.05 from control) was “reducing the perivascular cuffing (P), myelitis (E) and demyelination (D)”.

(Values after US20080108641A1, “Compounds for treating inflammatory disorders, demyelinating disdorders and cancers” (priority 2006, published 2008).)
